The source of these data is patent US6355799B1, “Substituted benzene compounds, process for their preparation, and herbicidal and defoliant compositions containing them” (ISK Americas Incorporated, priority 1997, dated 2002).

Type in all cases: in vivo
The test system of data set [1] is barnyardgrass (Echinochloa crus-galli, ECHCG). The data set is described as follows: Pre-emerge test, greenhouse herbicide activity screening. The following applies: pre-emerge, phytotoxicity rating 0-100 at 14 days after application. The method, boiled down: (§1)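 Compounds in acetone were track-sprayed at 15–1000 g ai/ha: pre-emergence onto soil sown the previous day, then top-watered to incorporate and later bottom-watered; post-emergence onto 2–3 leaf plants with 0.25% v/v surfactant, bottom-watered only. Ratings on a 0–100 phytotoxicity scale were taken at day 14.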

The subject of data set [2] is large crabgrass (Digitaria sanguinalis, DIGSA). The data set is described as above. The note with it: pre-emerge, phytotoxicity rating 0-100 at 14 days after application. In outline: as §1
For data set [3], the system named is sicklepod (Cassia obtusifolia, CASOB). The data set is described as above. The note with it: pre-emerge, phytotoxicity rating 0-100 at 14 days after application. In outline:
as §1

For data set [4], the system named is johnsongrass (Sorghum halepense, SORHA). The description is as above. The note with it: pre-emerge, phytotoxicity rating 0-100 at 14 days after application. In outline:
as §1

Data set [5] relates to green foxtail (Setaria viridis, SETVI). The description is as above. The following applies: pre-emerge, phytotoxicity rating 0-100 at 14 days after application. In outline: as §1
The subject of data set [6] is lambsquarters (Chenopodium album, CHEAL). The description is as above. The following applies: pre-emerge, phytotoxicity rating 0-100 at 14 days after application. In outline:
as §1

The subject of data set [7] is ivyleaf morningglory (Ipomoea hederacea, IPOHE). The description is as above. The note with it: pre-emerge, phytotoxicity rating 0-100 at 14 days after application. The method, boiled down:
as §1

Data set [8] has as its system velvetleaf (Abutilon theophrasti, ABUTH). The data set is described as above. The following applies: pre-emerge, phytotoxicity rating 0-100 at 14 days after application. The method, boiled down: as §1
Data set [9] has as its system field corn (Zea mays L., var. Dekalb 535, CORN). Briefly: Pre-emerge test, crop safety. The note with it: crop damage, pre-emerge, phytotoxicity rating 0-100 at 14 days after application. In outline:
(§2)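 Rating: 0–100 visual injury, 14 DAA. Application: acetone, 187 l/ha, 15–1000 g ai/ha, flat-fan track sprayer with nozzle 40–45 cm above soil or canopy. Post-emerge runs used 0.25% v/v surfactant on 2–3 leaf plants.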

The test system of data set [10] is upland rice (Oryza sp., var. Tebonnet, RICE). Briefly: Pre-emerge test, crop safety. The note with it: crop damage, pre-emerge, phytotoxicity rating 0-100 at 14 days after application. In outline: as §2
Data set [11] relates to redroot pigweed (Amaranthus retroflexus, AMARE). The data set is described as follows: Pre-emerge test, greenhouse herbicide activity screening. The note with it: pre-emerge, phytotoxicity rating 0-100 at 14 days after application. The method, boiled down:
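Plants grown in 10 cm pots of sandy loam mix received acetone-dissolved compounds through a moving flat-fan nozzle. Doses ranged from 15 to 1000 g ai/ha. Pre-emerge pots were seeded one day earlier, post-emerge pots 8–21 days earlier. Fourteen days on, each pot was graded 0–100 for damage.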

Regarding `COc1c(Cl)cc(F)c(-n2c(=O)n3n(c2=O)CCCC3)c1N` [9-4], the results for the “Pre-emerge Herbicidal Activity ECHCG” value in data set [1] (rate 63 g ai/ha) and in data set [1] (rate 250 g ai/ha) were 0 and 10, respectively. The “Pre-emerge Herbicidal Activity DIGSA” value is on record as 0 in data set [2] (rate 63 g ai/ha) and 60 in data set [2] (rate 250 g ai/ha). Further, the figures for the “Pre-emerge Herbicidal Activity CASOB” value in [3] (rate 63 g ai/ha) and in data set [3] (rate 250 g ai/ha) were 30 and 60, respectively. For the same compound, the “Pre-emerge Herbicidal Activity SORHA” value is given as 0 in data set [4] (rate 63 g ai/ha) and 30 in [4] (rate 250 g ai/ha). Further, the “Pre-emerge Herbicidal Activity SETVI” value is listed as 0 in [5] (rate 63 g ai/ha) and 70 in [5] (rate 250 g ai/ha). Moreover, the “Pre-emerge Herbicidal Activity CHEAL” value in data set [6] (rate 63 g ai/ha) is reported as 30; in data set [6] (rate 250 g ai/ha), 80. Also, the figures for the “Pre-emerge Herbicidal Activity IPOHE” value in data set [7] (rate 63 g ai/ha) and in data set [7] (rate 250 g ai/ha) were 10 and 50, respectively. For the same compound, the results for the “Pre-emerge Herbicidal Activity ABUTH” value in data set [8] (rate 63 g ai/ha) and in [8] (rate 250 g ai/ha) were 90 and 100, respectively. Also, the “Pre-emerge Herbicidal Activity CORN” value in data set [9] (rate 63 g ai/ha) and in data set [9] (rate 250 g ai/ha) was 0 each time. The “Pre-emerge Herbicidal Activity RICE” value in data set [10] (rate 63 g ai/ha) was 0; in data set [10] (rate 250 g ai/ha), 10. Moreover, the “Pre-emerge Herbicidal Activity AMARE” value in data set [11] (rate 63 g ai/ha) stood at 60; in data set [11] (rate 250 g ai/ha), 100.

`COc1c(Cl)cc(F)c(-n2c(=O)n3n(c2=O)CCCC3)c1NC(C)=O` [9-5]: the “Pre-emerge Herbicidal Activity ECHCG” value in [1] (rate 63 g ai/ha) was found to be 0; in [1] (rate 250 g ai/ha) it was 30. Besides, the “Pre-emerge Herbicidal Activity DIGSA” value came out at 10 in data set [2] (rate 63 g ai/ha) and 40 in [2] (rate 250 g ai/ha). The “Pre-emerge Herbicidal Activity CASOB” value in data set [3] (rate 63 g ai/ha) amounted to 10; in [3] (rate 250 g ai/ha) it was 80. In addition, the “Pre-emerge Herbicidal Activity SORHA” value in data set [4] (rate 63 g ai/ha) was 0; in [4] (rate 250 g ai/ha), 20. Moreover, the “Pre-emerge Herbicidal Activity SETVI” value in [5] (rate 63 g ai/ha) is 20; in data set [5] (rate 250 g ai/ha) it was 60. In addition, the “Pre-emerge Herbicidal Activity CHEAL” value in [6] (rate 63 g ai/ha) and in [6] (rate 250 g ai/ha) was 100 throughout. Besides, the entries for the “Pre-emerge Herbicidal Activity IPOHE” value in [7] (rate 63 g ai/ha) and in data set [7] (rate 250 g ai/ha) were 70 and 100, respectively. Moreover, the “Pre-emerge Herbicidal Activity ABUTH” value in data set [8] (rate 63 g ai/ha) and in data set [8] (rate 250 g ai/ha) was 100 throughout. For the same compound, the “Pre-emerge Herbicidal Activity CORN” value is on record as 0 in data set [9] (rate 63 g ai/ha) and 10 in data set [9] (rate 250 g ai/ha). Further, the “Pre-emerge Herbicidal Activity RICE” value in [10] (rate 63 g ai/ha) is reported as 25; in [10] (rate 250 g ai/ha), 60. Further, the “Pre-emerge Herbicidal Activity AMARE” value in data set [11] (rate 63 g ai/ha) and in data set [11] (rate 250 g ai/ha) was 100 in each case.
